Reference: patent US7425548B2, “Materials and methods for immune system stimulation” (Variety Chidren's Hospital, priority 2004, dated 2008)
Values joined by “and” are separate entries in the source; they are usually repeats but may differ in a detail not shown here. Identical values can stand only once.

Tests used:
[1] = tested on: normal lymphocytes; test: Oxidative stress (GSH/GSSG levels); format: cell-based, human; conditions: for GSH / GSH/GSSG / GSSG: 24 hours
Method: Oxidative stress (GSH/GSSG levels). The measure of the reduced (GSH) as well as oxidized (GSSG) levels of glutathione and their ratio are useful indicators for oxidative stress. The levels of GSH and GSSG were assayed by a colorimetric method using Biotech GSH/GSSG-412 kit (Oxis Research, Portland, Oreg.) according to manufacturer's protocol. Briefly, normal blood samples from healthy donors were incubated with different concentrations of RR1 for 24 hours in a 5% CO2 incubator at 37° C. For GSSG, 100 μl of each of the treated sample was frozen at −70° C. for 4 hours, thawed and added 290 μl of 5% meta phosphoric acid (MPA). The samples were vortexed for 15-20 seconds and centrifuged at 1000×g for 10 minutes. MPA extract (50 μl) was added to 700 μl of GSSG buffer that was used for the calorimetric assay. For GSH measurement 50 μl of the whole blood was frozen at −70° C., thawed and added 350 μl of 5% MPA, vortexed for 15-20 seconds and centrifuged at 10,000×g for 10 minutes. MPA extract (50 μl) was added to 3 ml of the assay buffer and used for further analysis. MPA buffer mixture (200 μl) of each standard and sample was transferred to a spectrophotometer cuvette, added 200 μl of chromogen followed by 200 μl of enzyme in the order and incubated at room temperature for 5 minutes. Afterwards, 200 μl of NADPH was added into the cuvette and changes in the absorbance at 412 nm were recorded in a BECKMAN spectrophotometer. The reaction rates were plotted using the absorbance values and the levels of GSH and GSSG were determined.

[2] = tested on: iNOS; test: iNOS induction immunoassay; format: cell-based, human; conditions: cytoplasmic extract of cells treated with RR1
Method: Inducible Nitric Oxide Synthase (iNOS) induction and Nitric oxide (NO) synthesis. Higher and long lasting release of NO is caused by the enzyme iNOS upon stimulation with […]. The iNOS induction by RR1 stimulation was assayed by QUANTIKINE iNOS immunoassay kit (R&D systems, Minneapolis, Minn.) which employs a sandwich enzyme immunoassay technique. The iNOS was assayed from the cytoplasmic extract of the cells treated with different concentrations of RR1. The samples and standards were pipetted in to the wells of the 96-well plate and any iNOS present was bound to the immobilized antibody. After washing away the unbound substances, an enzyme linked monoclonal antibody specific for iNOS was added. After washing away the unbound antibody enzyme reagent, the color developing substrate solution was added, the color development was stopped by stop solution and the absorbance was read at 450 nm with a reference wave length of 570 nm in the Bio-Rad plate reader.

[3] = tested on: normal lymphocytes; test: MTT cytotoxicity / cell proliferation assay; format: cell-based, human; conditions: 24 hours, concentrations as high as 1000 μg/ml
Method: (§1) FIGS. 4A-4B show cytotoxic analysis of RR1 in normal lymphocytes (a) and tumor cell lines (b). Cells (10^6) were treated with RR1 for 24 hours and cytotoxicity assay performed using MTT cell proliferation kit (Roche Biochemicals). The percentage of surviving cells over control was plotted against RR1 concentrations.
(§2) Immunostimulating Properties. To measure the immune stimulatory property of RR1, the activation of the different subsets of lymphocytes, syntheses of cytokines such as interleukin (IL)-1β, IL-2, IL-4, IL-6, IL-10, IL-12 p70 and p40, IL-18, interferon (IFN)-α and γ, Tumor Necrosis factor (TNF)-α and β, monocyte chemo-attractant protein (MCP)-1, synthesis of nitric oxide (NO), and the extent of oxidative stress elicited in human lymphocytes was analyzed. Normal lymphocytes were isolated by the histopaque density gradient method from fresh blood drawn from healthy volunteers and utilized for various assays. Human leukemic (CEM) and multidrug resistant (CEM/VLB) cell lines were grown in RPMI medium supplemented with 10% fetal bovine serum and antibiotics in 5% CO2 incubator at 37° C.

[4] = tested on: CEM tumor cell line; test: MTT cytotoxicity / cell proliferation assay; format: cell-based, human; conditions: 24 hours, concentrations as high as 1000 μg/ml
Method: as §1, §2

[5] = tested on: CEM/VLB tumor cell line; test: MTT cytotoxicity / cell proliferation assay; format: cell-based, human; conditions: 24 hours, concentrations as high as 1000 μg/ml
Method: as §1, §2

[6] = tested on: NF-κB in RAW264.7 macrophages; test: NF-κB DNA binding activity of nuclear extracts (ELISA, EMSA); format: cell-based, mouse
Method: The macrophages were treated with 100 μg/ml of RR1 and NF-κB activity of the nuclear extracts analyzed at 2, 4, 8, 14, and 20 hours after incubation using ELISA protocol.
NF-κB activity increased with escalating doses of RR1, reaching a plateau at 500 μg/ml.
NF-κB activity. RAW264.7 cells were incubated with 0, 100, 500 and 1000 μg/ml of RR1 for 8 hours and the nuclear proteins were extracted using the NF-κB activity kit from Active Motif, CA according to manufacturer's ELISA instructions. To visualize the NF-κB activation further, Electrophoretic Mobility Shift Assay (EMSA) was performed (Ghosh, S, and Karin, M., Cell, 2002, 109:S81-96; Young, S. H. et al. J. Biol Chem., 2001, 276:20781-20787; Lebron, F. et al. J Biol Chem., 2003, 278:25001-25008) with the nuclear protein. A double stranded probe that binds NF-κB (5′-[…]-3′, SANTA CRUZ BIOTECHNOLOGY, Santa Cruz, Calif.) was radio labeled with ^32P-ATP, and EMSA performed with 5 μg of nuclear extract. The EMSA reaction mixtures were incubated for 30 minutes at room temperature, and DNA-protein complexes were separated on 6% polyacrylamide gels and visualized by autoradiography. […] The nuclear extracts were analyzed for the protein content, and NF-κB activity analyzed using ELISA kit from ACTIVE MOTIF, Carlsbad, Calif.

## (1,4)-α-D-glucan [RR1]
[1]; RR1 5 μg/ml
  GSH: 365.08 ± 3.81 µM
  GSH/GSSG: 14.05 ± 0.41
  GSSG: 22.77 ± 0.58 µM
[1]; RR1 10 μg/ml
  GSH: 366.10 ± 0.97 µM
  GSH/GSSG: 14.34 ± 0.35
  GSSG: 22.67 ± 0.41 µM
[1]; RR1 50 μg/ml
  GSH: 364.43 ± 0.10 µM
  GSH/GSSG: 14.25 ± 0.40
  GSSG: 22.75 ± 0.55 µM
[1]; indicated by GSH, GSSG and their ratio
  oxidative stress in lymphocytes: does not produce any oxidative stress
[2]
  induction of iNOS: did not stimulate the induction of iNOS significantly
[3]
  direct cytotoxic or cell proliferating effect (MTT): no direct cytotoxic or cell proliferating effect
[4]
  direct cytotoxic or cell proliferating effect (MTT): no direct cytotoxic or cell proliferating effect
[5]
  direct cytotoxic or cell proliferating effect (MTT): no direct cytotoxic or cell proliferating effect
[6]; 100 μg/ml RR1, ELISA
  time of stimulation at which NF-κB activity peaked: 8 h
[6]; 8 hours of stimulation
  RR1 dose at which NF-κB activity reaches a plateau: 500 to 1000 µg/mL and 500 µg/mL
